Experimental data reported in ChEMBL document CHEMBL1133389, “Antihypertensive activity of substituted 2,3,8,8a-tetrahydro-7H-oxazolo[3,2-a]pyridinedicarboxylate enantiomers” (Bioorg Med Chem Lett, 2000).
Active and inactive are the calls of the source. The rule behind the calls is not given here.

Assays:
Assay type in all cases: functional, organism-based
Parameters in all cases: dose 50 mg/kg
[1] = system: Rattus norvegicus; test: Tested for relative acute toxicity at the dose of 50 mg/kg after intraperitoneal administration in spontaneously hypertensive rats; active
[2] = system: Rattus norvegicus; test: Tested for relative acute toxicity at the dose of 50 mg/kg after intraperitoneal administration in spontaneously hypertensive rats; inactive
[3] = system: Rattus norvegicus; test: Tested for antihypertensive activity at the dose of 50 mg/kg in spontaneously hypertensive rats; active
[4] = system: Rattus norvegicus; test: Tested for reflex tachycardia at the dose of 50 mg/kg when administered intraperitoneally in spontaneously hypertensive rats; active
[5] = system: Rattus norvegicus; test: Tested for antihypertensive activity at the dose of 50 mg/kg in spontaneously hypertensive rats; inactive

Structure (SMILES): COC(=O)C1=C(C)N2C[C@@H](C)O[C@]2(C)[C@H](C(=O)OC)[C@H]1c1cccc(Cl)c1
- Activity [1]: Active

Structure (SMILES): COC(=O)C1=C(C)N2C[C@H](C)O[C@@]2(C)[C@@H](C(=O)OC)[C@@H]1c1cccc(Cl)c1
- Activity [2]: inactive

Structure (SMILES): CCOC(=O)[C@H]1[C@H](c2cccc([N+](=O)[O-])c2)C(C(=O)OC)=C(C)N2CCO[C@@]12C
- Activity [3]: Active

Structure (SMILES): CCOC(=O)[C@H]1[C@H](c2cccc([N+](=O)[O-])c2)C(C(=O)OC)=C(C)N2C[C@H](C)O[C@@]12C
- Activity [3]: Active

Structure (SMILES): COC(=O)C1=C(C)NC(C)=C(C(=O)OC)C1c1ccccc1[N+](=O)[O-]
- Activity [4]: Active

Structure (SMILES): CCOC(=O)[C@@H]1[C@@H](c2cccc([N+](=O)[O-])c2)C(C(=O)OC)=C(C)N2C[C@@H](C)O[C@]12C
- Activity [5]: inactive
